Source: publication PMC3599540, “4-Aryl-4H-naphthopyrans derivatives: one-pot synthesis, evaluation of Src kinase inhibitory and anti-proliferative activities” (DARU Journal of Pharmaceutical Sciences, 2012)

How the values were obtained:
c-Src kinase = molecular target: T1, c-Src kinase (Homo sapiens, UniProt P12931); assay: c-Src kinase activity assay (HTScan Src Kinase Assay Kit); format: biochemical; details: concentration that inhibited enzyme activity by 50%; triplicate; read-out: IC50 (inhibition of Src kinase activity)
T1 construct: purchased Cell Signaling Technology (Danvers, MA, USA) 7776
Experimental: Streptavidin-coated plates were purchased from Pierce (Rockford, IL, USA). […] The reaction mixture was incubated for 30 min at room temperature. The kinase reaction was stopped with the addition of 50 μL of 50 mM EDTA (pH 8.0). […] At the end of the incubation, the wells were washed three times with 200 μL of 0.05% Tween-20 in PBS buffer (PBS/T). After that to each well was added 100 μL of phosphotyrosine antibody (P-Tyr-100) (1:1000 dilution in PBS/T with 1% BSA) and the wells were incubated for another 60 min. After washing three times with 0.05% Tween-20 in PBS/T, the wells were incubated with 100 μL secondary anti-mouse IgG antibody, which was HRP-conjugated (1:500 dilution in PBS/T with 1% BSA) for next 30 min at room temperature. The wells were washed five times with 0.05% Tween-20 in PBS and then were incubated with 100 μL of 3,3',5,5'-tetramethylbenzidine dihydrochloride (TMB) substrate for 5 min. The reaction was stopped by adding 100 μL/well of stop solution to each well and mixed well and read the absorbance at 450 nm using a microplate reader (Molecular devices, spectra Max M2). IC50 values of the compounds were calculated using ORIGIN 6.0 (origin lab) software. […] All the experiments were carried out in triplicate.

[1] = test system: mesenchymal stem cell proliferation; set-up: method as in PMID 9562601; details: cited from earlier work
[2] = test system: breast carcinoma (BT-20) cell line; assay: Cell proliferation assay (CellTiter 96) in BT-20 cells; format: cell-based; details: DOX 10 μM, 72 h incubation, relative to DMSO control
Experimental: Breast carcinoma BT-20 (ATCC no. HTB-19) cell lines were obtained from American Type Culture Collection. Cells were grown on 75 cm^2 cell culture with EMEM medium for breast carcinoma and supplemented with 10% fetal bovine serum (FBS), and 1% penicillin-streptomycin solution (10,000 units of penicillin and 10 mg of streptomycin in 0.9% NaCl) in a humidified atmosphere of 5% CO2, 95% air at 37°C.
Cell proliferation assay of compounds was evaluated in BT-20 cells, and was compared with that of doxorubicin (DOX)[38]. Cell proliferation assay was carried out using CellTiter 96 aqueous one solution cell proliferation assay kit (Promega, USA). Briefly, upon reaching about 75-80% confluence, 5000 cells/well were plated in 96-well microplate in 100 μL media. After seeding for 72 h, the cells were treated with 50 μM compound in triplicate. […] The absorbance of the formazan product was measured at 490 nm using microplate reader. The blank control was recorded by measuring the absorbance at 490 nm with wells containing medium mixed with CellTiter 96 aqueous solution but no cells. Results were expressed as the percentage of the control (DMSO without compound set at 100%). The percentage of cell survival was calculated as (OD value of cells treated with test compound - OD value of culture medium) / (OD value of control cells – OD value of culture medium) × 100%. […]

T1 sequence (P12931 whole entry): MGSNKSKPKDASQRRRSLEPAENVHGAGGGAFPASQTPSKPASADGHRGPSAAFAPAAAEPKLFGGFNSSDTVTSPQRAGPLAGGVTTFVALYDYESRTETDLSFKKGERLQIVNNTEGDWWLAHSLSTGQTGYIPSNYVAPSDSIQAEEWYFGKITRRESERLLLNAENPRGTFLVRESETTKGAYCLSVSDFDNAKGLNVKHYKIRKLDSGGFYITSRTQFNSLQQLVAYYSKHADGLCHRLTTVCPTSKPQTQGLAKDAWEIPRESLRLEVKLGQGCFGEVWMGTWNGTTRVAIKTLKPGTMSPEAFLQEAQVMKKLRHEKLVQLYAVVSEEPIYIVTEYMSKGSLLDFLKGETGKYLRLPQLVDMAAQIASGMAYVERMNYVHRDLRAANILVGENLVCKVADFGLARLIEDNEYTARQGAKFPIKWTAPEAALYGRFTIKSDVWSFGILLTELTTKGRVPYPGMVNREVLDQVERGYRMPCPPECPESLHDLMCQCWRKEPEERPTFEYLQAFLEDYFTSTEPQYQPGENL

| SMILES | IC50 (c-Src kinase) | also measured |
| --- | --- | --- |
| N#CC1=C(N)Oc2c(ccc3ccccc23)C1c1ccccc1Cl (stereo not drawn) [Compound 4d] | 34.7 µM |  |
| N#CC1=C(N)Oc2ccc3ccccc3c2C1c1cccc(Cl)c1 (stereo not drawn) [Compound 4j] | 41.7 µM |  |
| N#CC1=C(N)Oc2ccc3ccccc3c2C1c1cccc(O)c1 (stereo not drawn) [Compound 4m] | 33.8 µM |  |
| COc1ccc(C2C(C#N)=C(N)Oc3ccc4ccccc4c32)cc1 (stereo not drawn) [Compound 4n] | 34.5 µM |  |
| CSc1ccc(C2C(C#N)=C(N)OC3=C2CCc2ccccc23)cc1 (stereo not drawn) [compound B, 4-aryl-4H-5,6-dihydronaphtho[1,2-b]pyran] |  | IC50 [1]: 13 µM |
| COc1cccc2c1C(=O)c1c(O)c3c(c(O)c1C2=O)C[C@@](O)(C(=O)CO)C[C@@H]3O[C@H]1C[C@H](N)[C@H](O)[C@H](C)O1 [doxorubicin] |  | Inhibition of BT-20 cell growth (positive control) [2]: 25% |
